Reference: publication PMC10019194, “Killing Two Birds with One Stone: Discovery of Dual Inhibitors of Oxygen and Fumarate Respiration in Zoonotic Parasite, Echinococcus multilocularis” (Antimicrobial Agents and Chemotherapy, 2023)
Read-outs that look alike come from different tables or passages of the source.

Key:
[1] = molecular target: succinate-cytochrome c reductase (complexes II to III) (Echinococcus multilocularis, UniProt Q9TE80); assay: Succinate:cytochrome c reductase activity (complexes II to III); type: biochemical; conditions: read-out: IC50 against succinate-cytochrome c reductase
Procedure: (§1) NADH:quinone reductase activity (complex I), succinate:quinone reductase activity (complex II), and succinate:cytochrome c reductase activity (complexes II to III) were measured using a UV-3000 spectrophotometer (Shimadzu, Kyoto, Japan) as described previously ([4], [6]). Briefly, all enzyme assays using mitochondrial fractions were performed in 0.5- or 1.0-mL reaction mixtures at 25°C. A freeze/thaw process was performed before the assay to ensure that the mitochondrial membrane was permeable to the solutes. The final mitochondrial protein concentration was 50 μg/mL. NADH:quinone reductase activity was measured in 50 mM potassium phosphate buffer (pH 7.4) containing 2 mM potassium cyanide, KCN (Sigma, St. Louis, MO, USA), and 60 μM decylubiquinone (Sigma). The activity assay was started by the addition of 50 μM NADH (Fujifilm-Wako, Tokyo, Japan) and recorded as the rate of NADH consumption as monitored at 340 nm (ε = 6.2 mM^−1 cm^−1). […] SQR activity was determined by monitoring the change in absorbance of quinone at 278 nm (ε = 15 mM^−1 cm^−1) in the presence of 60 μM decylubiquinone, 2 mM KCN, and the inhibitor. […] NADH:cytochrome c activity (complex I to III) was measured in the reaction buffer (30 mM potassium phosphate, 1 mM MgCl2, pH 7.5) containing 2 mM KCN, 50 μM cytochrome c (Nacalai Tesque, Kyoto, Japan), and the inhibitor. […]

[2] = molecular target: complex II (succinate:quinone reductase, SQR) (Echinococcus multilocularis, UniProt A0A1Z4EAW8+A0A1Z4EAX0+A0A1Z4EAX1); assay: Succinate:quinone reductase (SQR) activity (complex II) in protoscoleces mitochondrial fraction; type: biochemical
From the text: (§2) Cyst tissues containing E. multilocularis (Nemuro strain) protoscoleces isolated from infected hispid cotton rats, Sigmodon hispidus, were used. The tissues were shredded through a metal mesh (0.5 mm diameter). Then, the tissues were repeatedly suspended and washed with physiological saline in a tall beaker to obtain protoscoleces by exploiting the buoyancy difference between protoscoleces and other tissue ([26]). The obtained protoscoleces were homogenized with a motor-driven homogenizer to prepare the mitochondrial fraction. The homogenate was diluted with mitochondrial preparation buffer (210 mM mannitol, 10 mM sucrose, 1 mM disodium EDTA, and 50 mM Tris-HCl [pH 7.5]) supplemented with 10 mM sodium malonate to 5 times the volume of the original protoscolex homogenate, and then centrifuged at 800 × g for 10 min (4°C) to remove cell debris and nuclei. The supernatant was then centrifuged at 8,000 × g for 10 min (4°C) to obtain the mitochondrial pellet. Next, the pellet was resuspended in mitochondrial preparation buffer (without malonate) and centrifuged at 8,000 × g for 10 min (4°C). The enriched mitochondrial fraction was finally suspended in approximately 0.5 to 1.0 mL of mitochondrial preparation buffer without malonate and frozen at −50°C. The mitochondrial fraction from A. suum was prepared essentially as described previously ([27], [28]).
(§3) NADH:quinone reductase activity (complex I), succinate:quinone reductase activity (complex II), and succinate:cytochrome c reductase activity (complexes II to III) were measured using a UV-3000 spectrophotometer (Shimadzu, Kyoto, Japan) as described previously ([4], [6]). Briefly, all enzyme assays using mitochondrial fractions were performed in 0.5- or 1.0-mL reaction mixtures at 25°C. A freeze/thaw process was performed before the assay to ensure that the mitochondrial membrane was permeable to the solutes. The final mitochondrial protein concentration was 50 μg/mL. NADH:quinone reductase activity was measured in 50 mM potassium phosphate buffer (pH 7.4) containing 2 mM potassium cyanide, KCN (Sigma, St. Louis, MO, USA), and 60 μM decylubiquinone (Sigma). The activity assay was started by the addition of 50 μM NADH (Fujifilm-Wako, Tokyo, Japan) and recorded as the rate of NADH consumption as monitored at 340 nm (ε = 6.2 mM^−1 cm^−1). The reagents used in the SQR activity assay were mixed with the reaction buffer containing 50 mM potassium phosphate (pH 7.4) and 0.1% (wt/vol) sucrose monolaurate (DOJINDO, Kumamoto, Japan). SQR activity was determined by monitoring the change in absorbance of quinone at 278 nm (ε = 15 mM^−1 cm^−1) in the presence of 60 μM decylubiquinone, 2 mM KCN, and the inhibitor. The reaction was initiated by the addition of 10 mM disodium succinate to the mixture. NADH:cytochrome c activity (complex I to III) was measured in the reaction buffer (30 mM potassium phosphate, 1 mM MgCl2, pH 7.5) containing 2 mM KCN, 50 μM cytochrome c (Nacalai Tesque, Kyoto, Japan), and the inhibitor. The assay was performed after the addition of 100 mM malonate to block complex II activity. The reaction was started by adding 50 μM NADH to the mixture, and the enzyme activity was determined by monitoring the change in absorbance of cytochrome c at 550 nm (ε = 19 mM^−1 cm^−1). IC50 values of AF and its derivatives against the specific activities of mitochondrial respiratory enzymes in protoscoleces were determined. The IC50 of each compound was determined by calculating approximation lines from three or more points on either side of the IC50 concentration.

A. suum complex II = molecular target: T1, A. suum complex II (Ascaris suum, UniProt O44074+P92506+P92507); assay: Complex II activity of A. suum mitochondrial fraction; type: biochemical
T1 construct: from tissue; host or cells: A. suum mitochondrial fraction
From the text: as §2, with “Next, the pellet was resuspended in mitochondrial preparation buffer (without malonate) and centrifuged at 8,000 × g for 10 min (4°C). The enriched mitochondrial fraction was finally suspended in approximately 0.5 to 1.0 mL of mitochondrial preparation buffer without malonate and frozen at −50°C. The mitochondrial fraction from A. suum was prepared essentially as described previously ([27], [28]).” left out
as §1, with “Briefly, all enzyme assays using mitochondrial fractions were performed in 0.5- or 1.0-mL reaction mixtures at 25°C. A freeze/thaw process was performed before the assay to ensure that the mitochondrial membrane was permeable to the solutes. The final mitochondrial protein concentration was 50 μg/mL.” left out

[3] = molecular target: complex I and III (NADH:cytochrome c reductase) (Echinococcus multilocularis, UniProt Q9TE80); assay: NADH:cytochrome c reductase activity (complex I to III) in protoscoleces mitochondrial fraction; type: biochemical; conditions: E. multilocularis protoscoleces mitochondria; mean ± SEM; Table 1; read-out: IC50 NADH:cytochrome c reductase (complex I and III)
From the text: as §2, §3

[4] = molecular target: complex I (NADH:quinone reductase) (Echinococcus multilocularis, UniProt A0A068Y553+A0A068Y9L9+Q9TE76); assay: NADH:quinone reductase activity (complex I) in protoscoleces mitochondrial fraction; type: biochemical; conditions: E. multilocularis protoscoleces mitochondria; read-out: IC50 NADH:decyl rhodoquinone reductase (complex I)
From the text: as §2
as §3, with “Louis, MO, USA), and 60 μM decylubiquinone (Sigma).” left out, “SQR activity was determined by monitoring the change in absorbance of quinone at 278 nm (ε = 15 mM^−1 cm^−1) in the presence of 60 μM decylubiquinone, 2 mM KCN, and the inhibitor.” left out

[5] = system: E. multilocularis protoscoleces; assay: Ex vivo culture assay of live protoscoleces, viability by trypan blue exclusion; type: cell-based, Echinococcus multilocularis; conditions: 50 μM
Procedure: FIG 5 Viability of E. multilocularis protoscoleces in ex vivo culture assay. The E. multilocularis protoscoleces were treated with ascofuranone (AF) and its derivatives in culture under aerobic and anaerobic conditions (O2 <0.3%). Each compound was added to the culture medium at a final concentration of 50 μM. The control group was supplemented with 0.5% (vol/vol) dimethyl sulfoxide (DMSO). Atovaquone (ATV) was used as positive control and to ensure anaerobic conditions in the culture. The viability of protoscoleces was evaluated by their ability to exclude trypan blue. The data are presented as the mean ± standard deviation (n = 3).
The obtained protoscoleces were cultured in Connaught Medical Research Laboratories 1066 medium (Gibco, Grand Island, NY, USA) containing 0.5% (wt/vol) yeast extract (Difco Laboratories, Detroit, MI, USA), 2 mM L-glutamine (Gibco), 23 mM 4-(2-hydroxyethyl)-1-piperazineethanesulfonic acid, 0.5% (wt/vol) D (+)-glucose, 0.4 mM sodium taurocholate (Wako Pure Chemical Industries, Osaka, Japan), 57 mM sodium hydrogen carbonate, and 100 U/mL penicillin-streptomycin (Gibco). The protoscoleces were observed daily for seven consecutive days, and half of the medium was replaced on day 3. For anaerobic cultures, six-well plates were sealed in plastic containers with oxygen-detecting agents and oxygen scavengers (Aneromeito, Nissui Pharmaceutical, Tokyo, Japan) to keep the oxygen concentration below 0.3% at 37°C. The protoscoleces were treated with AF and its derivatives at a final concentration of 50 μM in the culture medium, and the duration of parasite elimination was investigated. The control group was supplemented with 0.5% (vol/vol) dimethyl sulfoxide (DMSO), and all conditions were assayed in triplicate. We used ATV in a culture assay as positive control and to ensure anaerobic conditions in the culture ([4], [5]). […] The viability of protoscoleces was determined after microscopic observation of more than 170 protoscoleces per well using the trypan blue exclusion test, as described previously ([4], [6], [33]).

Chain of complex II (succinate:quinone reductase, SQR) (A0A1Z4EAV8 entry or part of it): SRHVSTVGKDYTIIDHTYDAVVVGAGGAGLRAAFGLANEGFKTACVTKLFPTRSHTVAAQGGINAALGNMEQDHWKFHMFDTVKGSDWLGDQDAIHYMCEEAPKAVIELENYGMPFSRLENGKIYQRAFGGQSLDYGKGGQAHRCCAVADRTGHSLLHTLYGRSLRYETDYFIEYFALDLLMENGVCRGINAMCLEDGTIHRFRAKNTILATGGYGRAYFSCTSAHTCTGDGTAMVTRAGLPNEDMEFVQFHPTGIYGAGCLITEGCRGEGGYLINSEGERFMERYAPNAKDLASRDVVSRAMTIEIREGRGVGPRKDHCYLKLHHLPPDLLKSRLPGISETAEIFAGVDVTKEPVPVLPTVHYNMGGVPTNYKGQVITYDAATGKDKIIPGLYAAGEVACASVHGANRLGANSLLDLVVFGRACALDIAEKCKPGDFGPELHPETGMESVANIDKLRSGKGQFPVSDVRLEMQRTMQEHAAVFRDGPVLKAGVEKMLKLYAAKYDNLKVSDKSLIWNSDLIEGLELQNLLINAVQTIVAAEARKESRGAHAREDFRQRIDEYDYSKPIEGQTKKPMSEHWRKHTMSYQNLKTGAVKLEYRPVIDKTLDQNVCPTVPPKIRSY
Chain of complex II (succinate:quinone reductase, SQR) (A0A1Z4EAX1 entry or part of it): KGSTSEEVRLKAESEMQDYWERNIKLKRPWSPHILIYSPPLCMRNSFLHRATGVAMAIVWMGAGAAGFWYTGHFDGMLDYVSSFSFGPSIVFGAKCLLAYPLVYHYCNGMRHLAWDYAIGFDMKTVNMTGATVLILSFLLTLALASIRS
Chain of complex II (succinate:quinone reductase, SQR) (A0A1Z4EAX0 entry or part of it): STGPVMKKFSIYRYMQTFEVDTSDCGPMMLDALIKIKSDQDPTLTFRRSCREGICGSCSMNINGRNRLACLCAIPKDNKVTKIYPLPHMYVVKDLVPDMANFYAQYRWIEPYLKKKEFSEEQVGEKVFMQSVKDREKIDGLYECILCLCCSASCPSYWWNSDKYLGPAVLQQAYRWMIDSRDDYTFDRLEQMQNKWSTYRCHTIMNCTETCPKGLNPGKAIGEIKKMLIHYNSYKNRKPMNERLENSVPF
Chain of complex II (succinate:quinone reductase, SQR) (A0A1Z4EAW8 entry or part of it): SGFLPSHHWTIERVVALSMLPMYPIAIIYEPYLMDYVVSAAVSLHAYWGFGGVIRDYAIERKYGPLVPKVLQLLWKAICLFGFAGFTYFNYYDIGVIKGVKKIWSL
T1 sequence (O44074 22-282): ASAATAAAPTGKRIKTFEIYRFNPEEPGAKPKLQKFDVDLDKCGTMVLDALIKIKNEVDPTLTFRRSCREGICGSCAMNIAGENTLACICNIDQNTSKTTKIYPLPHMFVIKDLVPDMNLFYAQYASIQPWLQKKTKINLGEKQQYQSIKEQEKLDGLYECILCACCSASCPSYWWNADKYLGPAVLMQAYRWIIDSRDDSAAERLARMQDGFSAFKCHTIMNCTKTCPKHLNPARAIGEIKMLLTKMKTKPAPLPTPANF
T1 sequence (P92506 32-188): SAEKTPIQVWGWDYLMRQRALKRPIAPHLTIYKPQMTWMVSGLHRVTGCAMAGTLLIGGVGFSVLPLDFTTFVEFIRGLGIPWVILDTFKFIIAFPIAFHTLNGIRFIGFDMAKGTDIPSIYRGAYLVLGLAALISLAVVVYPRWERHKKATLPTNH
T1 sequence (P92507 26-156): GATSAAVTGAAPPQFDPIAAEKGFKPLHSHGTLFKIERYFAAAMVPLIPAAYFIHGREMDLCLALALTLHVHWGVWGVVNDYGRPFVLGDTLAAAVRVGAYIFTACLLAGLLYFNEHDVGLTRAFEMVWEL
T1 sequence (Q33862 19-645 partner): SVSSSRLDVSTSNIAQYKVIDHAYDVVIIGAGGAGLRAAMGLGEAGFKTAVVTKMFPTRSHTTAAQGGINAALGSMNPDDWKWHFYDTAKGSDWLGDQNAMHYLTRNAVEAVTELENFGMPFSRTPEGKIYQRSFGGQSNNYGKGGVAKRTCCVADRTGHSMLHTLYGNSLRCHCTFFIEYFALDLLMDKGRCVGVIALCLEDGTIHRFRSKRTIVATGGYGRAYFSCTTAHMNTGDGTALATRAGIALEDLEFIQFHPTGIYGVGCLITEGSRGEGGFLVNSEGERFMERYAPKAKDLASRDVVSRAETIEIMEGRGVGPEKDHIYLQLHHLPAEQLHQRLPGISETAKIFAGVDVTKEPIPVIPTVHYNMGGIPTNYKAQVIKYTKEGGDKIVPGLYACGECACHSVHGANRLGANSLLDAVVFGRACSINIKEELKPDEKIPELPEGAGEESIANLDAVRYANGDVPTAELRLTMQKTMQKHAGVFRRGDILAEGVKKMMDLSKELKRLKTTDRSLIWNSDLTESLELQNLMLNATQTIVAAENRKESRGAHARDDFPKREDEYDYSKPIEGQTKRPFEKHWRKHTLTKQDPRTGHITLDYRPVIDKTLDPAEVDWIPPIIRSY
Chain of complex I and III (NADH:cytochrome c reductase) (Q9TE80 entry or part of it): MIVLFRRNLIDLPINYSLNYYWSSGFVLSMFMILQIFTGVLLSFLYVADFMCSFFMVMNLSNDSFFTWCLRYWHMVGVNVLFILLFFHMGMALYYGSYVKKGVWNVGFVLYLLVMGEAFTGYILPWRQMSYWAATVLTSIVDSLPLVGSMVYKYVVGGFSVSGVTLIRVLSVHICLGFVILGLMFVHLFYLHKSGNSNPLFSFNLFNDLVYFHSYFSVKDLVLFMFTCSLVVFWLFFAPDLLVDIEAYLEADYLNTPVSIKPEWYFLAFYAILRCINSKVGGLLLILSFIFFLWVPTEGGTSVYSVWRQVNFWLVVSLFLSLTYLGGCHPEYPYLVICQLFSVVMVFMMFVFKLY
Chain of complex I and III (NADH:cytochrome c reductase) (Q9GP40 whole entry, further chain): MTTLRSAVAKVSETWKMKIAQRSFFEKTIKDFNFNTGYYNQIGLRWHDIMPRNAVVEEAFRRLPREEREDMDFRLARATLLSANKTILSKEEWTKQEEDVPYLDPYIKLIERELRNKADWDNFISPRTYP
Chain of complex I and III (NADH:cytochrome c reductase) (Q9TE76 entry or part of it, further chain): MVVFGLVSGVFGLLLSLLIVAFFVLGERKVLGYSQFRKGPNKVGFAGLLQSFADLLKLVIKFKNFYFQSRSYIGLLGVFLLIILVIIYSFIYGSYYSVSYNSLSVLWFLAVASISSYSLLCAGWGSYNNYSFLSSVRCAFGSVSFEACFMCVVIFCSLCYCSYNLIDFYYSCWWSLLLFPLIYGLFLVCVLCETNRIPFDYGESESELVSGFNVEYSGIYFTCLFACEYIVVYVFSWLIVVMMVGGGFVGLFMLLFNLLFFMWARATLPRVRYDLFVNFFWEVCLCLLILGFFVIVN

## O=C1C(O)=C([C@H]2CC[C@H](c3ccc(Cl)cc3)CC2)C(=O)c2ccccc21 [ATV, Atovaquone, reference compound]
[1]
  IC50: 2 nM
[2]; IC50 against E. multilocularis complex II (SQR), figure legends, supplement
  IC50: 690 nM

## CC(=O)c1cc(Cl)c(O)c(C/C=C(\C)CCC=C(C)C)c1O [Compound D5]
A. suum complex II
  IC50: 11000 nM
A. suum complex II; ratio of IC50 A. suum / E. multilocularis
  fold less potent inhibition of A. suum complex II than of E. multilocularis complex II: 234 fold
[3]
  IC50: 221 ± 44 nM
[2]; IC50, inhibition of E. multilocularis SQR, Table 2, substitutions on the benzene group, mean ± SEM
  IC50: 47 ± 11 nM
[2]; IC50 Succinate:quinone reductase (SQR) (complex II), E. multilocularis protoscoleces mitochondria, mean ± SEM, Table 1
  IC50: 47 ± 11 nM
[4]
  IC50: > 50000 nM
[5]; aerobic culture
  day of complete elimination of protoscoleces: ≤ 6 days
[5]; anaerobic culture (O2 <0.3%)
  day of complete elimination of protoscoleces: ≤ 5 days
[5]; both anaerobic and aerobic conditions
  antiparasitic effect on protoscoleces in culture assay: strong antiparasitic effect

## CC(C)(C)c1ccc(CNC(=O)c2ccccc2C(F)(F)F)cc1 [NN23, reference compound]
A. suum complex II; A. suum mitochondrial fraction, read-out: IC50 against A. suum complex II
  IC50: 5 nM
[2]; figure legends, supplement, read-out: IC50 against E. multilocularis complex II (SQR)
  IC50: > 20000 nM
